Results taken from article PMC9877316, “Identification of a novel P2X7 antagonist using structure-based virtual screening” (Frontiers in Pharmacology, 2023).

Target: T1, rat P2X7 (Rattus norvegicus, UniProt Q64663)
T1 construct: expressed in transfected cells; host or cells: HEK-293 cells stably expressing rat P2X7-GFP (patch clamp)
T1 sequence (Q64663 1-595): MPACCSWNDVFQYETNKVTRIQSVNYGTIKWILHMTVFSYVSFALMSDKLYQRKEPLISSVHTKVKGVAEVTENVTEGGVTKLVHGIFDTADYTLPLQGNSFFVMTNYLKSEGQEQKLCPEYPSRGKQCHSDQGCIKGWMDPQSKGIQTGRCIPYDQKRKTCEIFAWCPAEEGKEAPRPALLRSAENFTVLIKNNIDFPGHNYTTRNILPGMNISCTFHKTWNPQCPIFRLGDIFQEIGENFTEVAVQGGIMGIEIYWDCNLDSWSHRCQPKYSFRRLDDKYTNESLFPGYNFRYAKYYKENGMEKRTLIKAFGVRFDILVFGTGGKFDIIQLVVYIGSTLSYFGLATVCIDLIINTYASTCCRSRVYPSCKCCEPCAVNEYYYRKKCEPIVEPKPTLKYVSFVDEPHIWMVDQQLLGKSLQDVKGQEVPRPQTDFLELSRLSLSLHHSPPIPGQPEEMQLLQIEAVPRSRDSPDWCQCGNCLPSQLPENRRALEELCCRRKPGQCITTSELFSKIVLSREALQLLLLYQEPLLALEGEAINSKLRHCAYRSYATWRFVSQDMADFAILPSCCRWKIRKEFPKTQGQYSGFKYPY
Assay: ATP/BzATP-induced YoPro-1 dye uptake assay, rat P2X7
Assay type: cell-based
Method: 1321N1 astrocytoma cells and HEK-293 cells were cultured (at 37°C, 5% CO2) in Dulbecco’s modified Eagle’s medium (DMEM/F-12 with Glutamax) supplemented with 10% foetal bovine serum (FBS) and 200 unit/ml of penicillin and streptomycin antibiotics (Fisher Scientific). For stable cell line generation, cells were transfected using FuGene HD Transfection Reagent (Promega) according to the manufacturer’s protocol with plasmids encoding either human P2X4 with a C-terminal (His)10 tag ([Young et al., 2008]), human P2X7 with a C-terminal EYMPME tag (kindly provided by R.A. North) or rat P2X7 C-terminally tagged with a GFP-(His)8 tag, generated by PCR amplification of the coding sequence for rat P2X7 from a pcDNA-based expression vector ([Young et al., 2007]), adding XhoI and EcoRI sites at the 5′- and 3′- ends respectively, followed by restriction digestion and ligation into a zebrafish P2X4-GFP expression vector based on pEGFP-C1 (kindly provided by Eric Gouaux; [Kawate and Gouaux, 2006]) to replace the zebrafish P2X4 coding region with rP2X7. Transfected clones were grown in DMEM/F-12 with Glutamax medium supplemented with G-418 (Geneticin®, Fisher Scientific), 600 μg/ml and 150 μg/ml during selection and maintenance respectively. […] HEK-293 cells stably expressing human P2X7 ([Adinolfi et al., 2010]) were a kind gift from Elena Adinolfi.
Cells were plated as for the calcium influx assay (Section 2.4). Culture medium was replaced with low divalent cation containing extracellular solution (ECS-LD; 147 mM NaCl, 10 mM HEPES, 13 mM Glucose, .2 mM CaCl2, 2 mM KCl. pH = 7.4 in MilliQ water) and 5 μM Yopro-1. […] The baseline was measured with a BMG Clariostar instrument for 5–10 cycles, followed by addition of ATP (or BzATP) and recording for at least 30 further cycles (approx. 1 min per data point). The collected responses were normalized to the first data-point recorded after ATP addition. The initial gradient of the dye uptake curve was used to calculate the response to ATP.
In order to confirm GP-25 as a competitive (orthosteric) antagonist, BzATP concentration-response curves (ranging between 300 μM and .03 µM) were constructed for rat P2X7-GFP in the YoPro-1 uptake assay in the presence of increasing concentrations of GP-25 (Figure 3A).

Schild plot slope (BzATP concentration-response curves, rat P2X7-GFP, increasing GP-25 up to 100 µM): 1.004 ± .2584
mode of antagonism (Schild analysis) (BzATP, rat P2X7-GFP, YoPro-1): competitive (orthosteric) antagonism
IC50 (YoPro-1 uptake, 300 µM ATP): 24.4 µM
inhibition at 30 µM (approx. % inhibition at 30 μM compound, 300 µM ATP, YoPro-1 uptake, rat P2X7-GFP, read-out: % Inhibition at rP2X7): 47%
SMILES: COC(=O)C1=C(C)NC2=C(C(=O)c3ccccc32)C1c1cc(Br)ccc1OCC(=O)O (stereo not shown) [Compound 9, (4-bromo-2-(3-(methoxycarbonyl)-2-methyl-5-oxo-4,5-dihydro-1H-indeno(1,2-b)pyridine-4-yl)phenoxy)acetic acid]
